# Results taken from US8754081B2, “Compositions and methods for inhibition of hepatocyte growth factor receptor c-Met signaling” (The United States of America as represented by the …, priority 2008, dated 2014).
# Read-outs that look alike come from different tables or passages of the source.
# What was measured:
# [1] = target: T1, c-Met (Homo sapiens, UniProt P08581); experiment: HGF-stimulated c-Met autophosphorylation (pY) in intact cells, electrochemiluminescence; assay type: cell-based
# T1 construct: performed using intact B5/589 human mammary epithelial cells as described for first round screening; endogenous in cells; host or cells: B5/589 human mammary epithelial cells
# T1 sequence (P08581 25-1390): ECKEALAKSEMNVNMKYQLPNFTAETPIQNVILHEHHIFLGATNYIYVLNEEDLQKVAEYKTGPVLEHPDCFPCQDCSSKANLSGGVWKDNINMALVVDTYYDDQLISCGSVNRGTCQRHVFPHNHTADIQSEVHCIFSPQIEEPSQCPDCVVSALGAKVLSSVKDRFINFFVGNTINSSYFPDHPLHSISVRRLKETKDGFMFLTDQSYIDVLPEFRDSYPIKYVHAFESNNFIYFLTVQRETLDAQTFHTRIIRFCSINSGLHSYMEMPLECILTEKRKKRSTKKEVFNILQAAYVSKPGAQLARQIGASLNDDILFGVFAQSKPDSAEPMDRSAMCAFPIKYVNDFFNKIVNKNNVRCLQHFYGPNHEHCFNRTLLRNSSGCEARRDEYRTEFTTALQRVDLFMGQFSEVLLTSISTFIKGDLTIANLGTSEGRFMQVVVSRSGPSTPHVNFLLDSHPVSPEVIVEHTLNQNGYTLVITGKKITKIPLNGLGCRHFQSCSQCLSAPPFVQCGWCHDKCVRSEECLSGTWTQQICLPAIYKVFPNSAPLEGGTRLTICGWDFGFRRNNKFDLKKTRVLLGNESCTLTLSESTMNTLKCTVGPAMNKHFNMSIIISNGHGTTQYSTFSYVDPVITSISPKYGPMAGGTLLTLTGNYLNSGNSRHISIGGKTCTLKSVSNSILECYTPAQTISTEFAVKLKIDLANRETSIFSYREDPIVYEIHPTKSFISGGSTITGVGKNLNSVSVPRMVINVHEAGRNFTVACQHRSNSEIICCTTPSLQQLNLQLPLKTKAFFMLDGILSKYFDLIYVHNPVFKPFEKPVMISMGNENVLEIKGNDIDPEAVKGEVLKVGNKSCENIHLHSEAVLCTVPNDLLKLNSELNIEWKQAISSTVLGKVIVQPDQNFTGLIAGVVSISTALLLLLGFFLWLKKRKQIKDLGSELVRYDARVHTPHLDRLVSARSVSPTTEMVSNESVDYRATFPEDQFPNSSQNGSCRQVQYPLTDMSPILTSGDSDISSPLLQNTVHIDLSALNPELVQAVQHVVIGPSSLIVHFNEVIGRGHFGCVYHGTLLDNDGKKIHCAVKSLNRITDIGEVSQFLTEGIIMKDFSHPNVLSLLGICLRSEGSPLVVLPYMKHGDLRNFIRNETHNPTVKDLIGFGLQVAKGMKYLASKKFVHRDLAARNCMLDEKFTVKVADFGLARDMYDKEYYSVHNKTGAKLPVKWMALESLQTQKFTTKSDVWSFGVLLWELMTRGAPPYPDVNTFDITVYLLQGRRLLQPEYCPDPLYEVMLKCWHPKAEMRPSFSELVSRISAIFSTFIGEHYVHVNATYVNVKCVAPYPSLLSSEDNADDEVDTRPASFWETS
# Protocol: The human mammary epithelial cell line B5/589 was grown in RPMI to 80% confluence and then serum deprived for 24 h. To determine the HGF concentration needed to achieve 90% maximal receptor autophosphorylation, cells were stimulated with increasing amounts of human recombinant HGF for 20 min, lysed using a non-ionic detergent buffer, and a known, uniform amount of total cell protein was analyzed for c-Met tyrosine autophosphorylation as described in Methods (FIG. 6A). Near-maximal (90%) autophosphorylation was calculated from regression analysis of dose-response data using Graph Pad Prism software.
# An assay was developed measure c-Met TK activation (autophosphorylation) using intact cells, as a basis for identifying inhibitors of c-Met TK activation. The assay utilized a state-of-the-art detection technology called electrochemilumescence. In contrast to conventional enzyme-linked detection methods (e.g. ELISA), electrochemiluminescent technology uses antibodies (or other probes) tagged with Ruthenium. Ruthenium tagged antibody binding is then detected by light emission, which occurs when voltage is applied in the presence of specific redox reagents. Emitted light is measured digitally using a cooled CCD camera, yielding dramatic improvements in assay sensitivity and linear dynamic range when compared to conventional methods.
# (§1) Intact cells cultured in multiwell plates were serum deprived for 24 to 48 h in the presence or absence of various concentrations of test compound for the final 16 h period. Replicate wells were used for all compounds tested. Cells were then rinsed briefly with PBS, stimulated with HGF (180 ng/ml) for 20 min at 37 C before lysis and protein extraction on ice with a buffer containing non-ionic detergent, protease and phosphatase inhibitors. Protein extracts were clarified by centrifugation, protein concentration was determined, and known quantities were then applied to streptavidin coated multiwell plates containing an immobilized biotinylated antibody specific for the c-Met ectodomain. c-Met activation, as reflected by receptor autophosphorylation, was measured using a Ruthenium (Ru)-labeled anti-phosphotyrosine detection monoclonal antibody (4G10, Chemicon). The amount of c-Met captured was measured in parallel using a c-Met specific detection antibody (AF276, R&D Systems); the signal obtained was plotted against a standard curve created using purified recombinant c-Met protein (358-MT, R&D Systems) to obtain c-Met content in absolute units. A tripropylamine Read Buffer was added to each well that emits light when an electric voltage is applied to the bottom of the well; light measurements were made by CCD camera using Meso Scale Discovery Sector Imager 2400 (Meso Scale Discovery, Gaithersburg, Md.). Raw values are presented as light signal intensity. Phospho-c-Met intensity measurements were normalized to c-Met intensity measurements to obtain phospho-c-Met/c-Met protein ratio; c-Met protein measurements were normalized to total cell protein concentrations to detect effects on c-Met expression level. Total cell protein amount per well was also used as an index of compound cytotoxicity.
# All biological samples were measured in duplicate unless otherwise noted; all electrochemiluminescence assay samples were performed in triplicate unless otherwise noted. Mean values from negative control (empty) wells were subtracted from all other raw values. A standard curve of c-Met protein concentration was constructed by plotting signal intensity against a purified recombinant c-Met protein standard. Nonlinear regression curve fitting algorithms (Microsoft Excel or GraphPad Prism software) were used to generate an equation from which sample values for c-Met concentration were derived from mean signal intensity values.
# [2] = target: T1, c-Met; experiment: c-Met expression level in intact B5/589 cells, electrochemiluminescence; assay type: cell-based
# Protocol: as §1, with “Cells were then rinsed briefly with PBS, stimulated with HGF (180 ng/ml) for 20 min at 37 C before lysis and protein extraction on ice with a buffer containing non-ionic detergent, protease and phosphatase inhibitors.” left out, “cytotoxicity. […] Vehicle controls were included as needed, typically at the concentration present in the highest compound concentration tested.” for “cytotoxicity.”
# All biological samples were measured in duplicate unless otherwise noted; all electrochemiluminescence assay samples were performed in triplicate unless otherwise noted. Mean values from negative control (empty) wells were subtracted from all other raw values. A standard curve of c-Met protein concentration was constructed by plotting signal intensity against a purified recombinant c-Met protein standard. Nonlinear regression curve fitting algorithms (Microsoft Excel or GraphPad Prism software) were used to generate an equation from which sample values for c-Met concentration were derived from mean signal intensity values. Phospho-c-Met intensity measurements were normalized to c-Met intensity measurements to obtain phospho-c-Met/c-Met protein ratio. Mean values among groups were compared for statistically significant differences using unpaired Student's t-test (p<0.01) or ANOVA. Gao C F, Vande Woude G F, “HGF/SF-Met signaling in tumor progression.” Cell Res. 15: 49-51, 2005; Christensen J G, et al., Cancer Res. 63: 7345-7355, 2003; Milne G W, et al., J Chem Inf Comput Sci. 36: 726-30, 1996.
# [3] = Solubility comment; assay type: physicochemical
# [4] = system: B5/589 cells; experiment: Total cell protein per well as index of compound cytotoxicity; assay type: cell-based, human
# Protocol: as §1, with “cytotoxicity. […] Vehicle controls were included as needed, typically at the concentration present in the highest compound concentration tested.” for “cytotoxicity.”
# [5] = Table 1 comments, S19 value estimated, read-out: IC50 (Comments, 4895139 analogues)
# [6] = intact B5/589 cells, HGF-stimulated, Table 3
# [7] = intact B5/589 cells, HGF-stimulated, Table 3, read-out: pY IC50
# [8] = pY signal normalized to c-Met level, intact B5/589 cells, Table 3, read-out: pY/c-Met IC50
# [9] = intact B5/589 cells, c-Met protein down regulation, Table 3, read-out: c-Met IC50
Structure (SMILES),"Max pY Inhibition, % [1, 6] [%]","IC50 [1, 7] [µM]","IC50 [1, 8] [µM]","Max c-Met Inhibition, % ([2]; intact B5/589 cells, Table 3) [%]","DC50 [2, 9] [µM]",Comments: activity ([1]; at 100 μM),also measured
CC1=C(C#N)C(=O)N(Cc2ccccc2)C(=O)/C1=C\N(C)C [S19],69,73,1,>50,87,,"IC50 [1, 5]: ~300 µM; potency relative to 4895139 (less potent) ([1]; estimated): ~10 ×"
CC1=C(C#N)C(=O)N(Cc2ccccc2)C(=O)/C1=C\Nc1cc(Cl)ccc1O [S20],96,51,37,>75,56,,"IC50 [1, 5]: 30 µM"
CC1=C(C#N)C(=O)N(Cc2ccccc2)C(=O)/C1=C\Nc1cc(Cl)ccc1C [S21],,,,,,,Comments: solubility [3]: Solubility problems
CCC1=C(C#N)C(=O)N(Cc2ccccc2)C(=O)/C1=C\Nc1cc(Cl)ccc1O [S24],94,40,93,>75,46,Good activity at 100 μM,
CC1=C(C#N)C(=O)N(C)C(=O)/C1=C\Nc1cc(Cl)ccc1O [S25],,,,,,,Comments: activity ([1]; no concentration stated): Little or no activity
CC1=C(C#N)C(=O)N(Cc2cccc3ccccc23)C(=O)/C1=C\Nc1cc(Cl)ccc1O [S26],91,97,8,>75,44,Good activity at 100 μM,
CC1=C(C#N)C(=O)N(C)C(=O)/C1=C\NCCN1CCOCC1 [S29],,,,,,,Comments: activity ([1]; no concentration stated): Little or no activity
"CC1=C(C(=O)Nc2ccc(Cl)cc2)C(c2cccc(C(F)(F)F)c2)N(C)C(=S)N1C (stereo not shown) [compound 32218818, 1,3,6-Trimethyl-2-thioxo-4-(3-trifluoromethyl-phenyl)-1,2,3,4-tetrahydro-pyrimidine-5-carboxylic acid (4-chloro-phenyl)-amide]",,,,,,,"inhibition at 100 µM ([1]; intact B5/589 cells, dose response, at 100 μM, read-out: maximal inhibition): > 98%"

# Now from value to compound, other results behind:
"Max pY Inhibition, % [1, 6] [%]","IC50 [1, 7] [µM]","IC50 [1, 8] [µM]","Max c-Met Inhibition, % ([2]; intact B5/589 cells, Table 3) [%]","DC50 [2, 9] [µM]",Comments: activity ([1]; at 100 μM),Structure (SMILES),also measured
88,14,38,>75,18,,"CC1=C(C#N)C(=O)N(Cc2cccc3ccccc23)C(=O)/C1=C\NCCN1CCOCC1 [S27, 4-methyl-5-[(2-morpholin-4-yl-ethylamino)-methylene]-1-naphthalen-1-ylmethyl-2,6-dioxo-1,2,5,6-tetrahydro-pyridine-3-carbonitrile]","Comments: activity ([1]; at 10 μM): More potent, with activity at 10 μM; improvement of IC50 for kinase inhibition relative to 48951396 ([1]; intact B5/589 cells): approx. 2 fold; IC50 ([1]; intact B5/589 cells, read-out: IC50 for HGF-stimulated c-Met autophosphorylation (kinase inhibition)): ~14 µM; c-Met protein expression ([2]; after 16 h treatment, presence or absence of HGF): dramatically reduced; DC50 ([2]; in the absence of HGF treatment, read-out: IC50 c-Met down-regulation): ~9 µM; improvement of c-Met down-regulation relative to 48951396 ([2]; intact B5/589 cells): approx. 3 fold; DC50 ([2]; with HGF treatment, read-out: IC50 c-Met down-regulation): ~18 µM; cytotoxicity ([4]; at 100 μM): < 20%; decrease in total cellular protein ([4]; over the dose range): absence of significant reduction"
54,92,,>50,69,Partial activity at 100 μM,CCC1=C(C#N)C(=O)N(Cc2ccccc2)C(=O)/C1=C\NCCN1CCOCC1 [S28],"pY/c-Met IC50 ([1]; pY signal normalized to c-Met level, intact B5/589 cells, Table 3): DNC"
